The values that follow come from PubChem BioAssay (NCI).

Several values for one entry are separate records, joined by “and”; a condition that tells them apart may be missing. Equal entries are not always repeated.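 Cells were grown in 96-well plates and exposed to each compound for 48 hours at five concentrations; endpoints were interpolated linearly between bracketing concentrations, or set to the highest concentration if not reached. Here, GI50 denotes the concentration required for 50% inhibition of growth. Definition used: TGI = concentration required for complete inhibition of growth.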 Where only a bound is given, the exact number is not on record here.

Test systems include SF-268 CNS; OVCAR-3 ovarian; SNB-78 CNS; HOP-92 NSCLC; DMS 114 small cell lung; OVCAR-4 ovarian; SN12C renal; CAKI-1 renal; EKVX NSCLC; HS 578T breast; MDA-N.
Common to all, as to assay: growth of human tumour cells (NCI), 48 h

In the case of `CCCSc1nc(-c2ccc(OC)cc2)c(C#N)c(=O)n1C1OC(COC(C)=O)C(OC(C)=O)C(OC(C)=O)C1OC(C)=O` (stereo not given), the TGI was above 100 µM with SF-268 CNS; above 100 µM in the experiment with OVCAR-3 ovarian; above 100 µM in the experiment on SNB-78 CNS; > 100 µM and 93.7 µM in the experiment on HOP-92 NSCLC; above 100 µM in the experiment with DMS 114 small cell lung; above 100 µM in the experiment with OVCAR-4 ovarian. The GI50 in the experiment with OVCAR-3 ovarian was > 100 µM and 35.3 µM; in the experiment on HOP-92 NSCLC, > 100 µM and 28.2 µM.

`CN(C)CCC(=O)/C=C\c1ccccc1`: the TGI with SN12C renal turned out to be 30.7 µM; in the experiment on OVCAR-3 ovarian it was 32.2 µM; with SNB-78 CNS it was 37.6 µM; in the experiment on HOP-92 NSCLC it was 32.9 µM; in the experiment with DMS 114 small cell lung, 33.7 µM; in the experiment on CAKI-1 renal, 32.7 µM. Besides, the TGI with OVCAR-4 ovarian stood at 33.3 µM; in the experiment on EKVX NSCLC, 33.9 µM.

With `CN(C)CCNC(=O)c1cccc2nc(-c3ccccc3)oc12`, the TGI with SF-268 CNS is above 100 µM; with SN12C renal, above 100 µM; in the experiment with OVCAR-3 ovarian, above 100 µM; in the experiment on SNB-78 CNS it was above 100 µM; in the experiment on HOP-92 NSCLC, 59.4 µM; with DMS 114 small cell lung, above 100 µM. The TGI in the experiment with OVCAR-4 ovarian was above 100 µM; in the experiment on EKVX NSCLC, above 55.8 µM.

Consider `COc1cc(/C=C/C=C2\CC/C(=C\C=C\c3ccc(O)c(OC)c3)C2=O)ccc1O`, for which the TGI with SF-268 CNS, in the experiment on SN12C renal, in the experiment on OVCAR-3 ovarian, in the experiment with HS 578T breast, with HOP-92 NSCLC and with MDA-N was above 100 µM throughout. In addition, the TGI in the experiment with CAKI-1 renal, with OVCAR-4 ovarian and with EKVX NSCLC was above 100 µM each time.

With `CO[C@@H]1O[C@H](C(=O)c2ccccc2)[C@H]2OC(C)(C)O[C@@H]12`, the TGI with SF-268 CNS, in the experiment on SN12C renal, in the experiment with OVCAR-3 ovarian, in the experiment with HS 578T breast, in the experiment with HOP-92 NSCLC and in the experiment on MDA-N was above 100 µM in each case. The TGI in the experiment on CAKI-1 renal, in the experiment with OVCAR-4 ovarian and in the experiment with EKVX NSCLC was above 100 µM each time.

Take `C[n+]1c(-c2ccc(/C=C/C=N\NC(=O)c3ccc(C(=O)N/N=C\C=C\c4ccc(-c5cn6ccccc6[n+]5C)cc4)cc3)cc2)cn2ccccc21`: the TGI in the experiment with SF-268 CNS, in the experiment with SN12C renal, in the experiment with OVCAR-3 ovarian, in the experiment on HS 578T breast, with HOP-92 NSCLC and in the experiment on MDA-N was above 100 µM in each case. In addition, the TGI in the experiment on CAKI-1 renal is above 60.4 µM; in the experiment with OVCAR-4 ovarian, above 100 µM; with EKVX NSCLC, above 100 µM.

As to `O=C(C(Cl)=C(N1CCOCC1)N1CCOCC1)C(Cl)Cl`, the TGI in the experiment on SF-268 CNS, in the experiment on SN12C renal, with OVCAR-3 ovarian, in the experiment with HS 578T breast, with HOP-92 NSCLC and in the experiment with MDA-N was above 100 µM in each case. Also, the TGI with CAKI-1 renal, with OVCAR-4 ovarian and in the experiment on EKVX NSCLC was above 100 µM each time.

As to `Cc1ccc(/C=C2\Cc3c(C)cc(C)cc3C2=O)c(C(=O)O)c1`, the TGI in the experiment with SF-268 CNS was above 100 µM; in the experiment with SN12C renal it was above 100 µM; in the experiment on OVCAR-3 ovarian it was 94 µM; in the experiment on HS 578T breast it was above 100 µM; in the experiment on HOP-92 NSCLC, above 100 µM; in the experiment with MDA-N it was above 100 µM. Moreover, the TGI with CAKI-1 renal, in the experiment with OVCAR-4 ovarian and in the experiment on EKVX NSCLC was above 100 µM throughout.

Consider `C#CCN(Cc1ccc2nc(OC)c(OC)nc2c1)c1cc(OC)c(OC)c(OC)c1`, for which the TGI in the experiment on SF-268 CNS was above 94.1 µM; in the experiment on SN12C renal, 57.2 µM; with OVCAR-3 ovarian, above 100 µM; with HS 578T breast, 79.1 µM; in the experiment with HOP-92 NSCLC, 62.6 µM; in the experiment with MDA-N it was 45.5 µM. Besides, the TGI was above 82.8 µM in the experiment on CAKI-1 renal, above 46.9 µM with OVCAR-4 ovarian and above 86 µM in the experiment on EKVX NSCLC.

As for `CC(C)(C)c1cc(C(=O)/C=C/c2ccc3c(c2)OCO3)cc(C(C)(C)C)c1O`, the TGI with SF-268 CNS was above 41.6 µM; in the experiment with SN12C renal, 76.4 µM; in the experiment on OVCAR-3 ovarian, 23 µM; in the experiment on HS 578T breast it was above 27.1 µM; in the experiment with HOP-92 NSCLC it was above 100 µM; in the experiment on MDA-N it was 5.53 µM. Besides, the TGI is above 100 µM in the experiment with CAKI-1 renal, 78.7 µM with OVCAR-4 ovarian and above 100 µM with EKVX NSCLC.

For `NC(=O)N/N=C1\CC2C3CC4C2C4C13` (stereo not given), the TGI in the experiment on SF-268 CNS, in the experiment on SN12C renal, with OVCAR-3 ovarian, with HS 578T breast, in the experiment on HOP-92 NSCLC and in the experiment on MDA-N was above 100 µM each time. The TGI in the experiment with CAKI-1 renal, in the experiment with OVCAR-4 ovarian and with EKVX NSCLC was above 100 µM in each case.

As for `CC(=O)c1ccc2c(c1)CC1(C2)Cc2ccccc2C1=O` (stereo not given), the TGI in the experiment with SF-268 CNS was above 100 µM; in the experiment with SN12C renal, above 100 µM; in the experiment with OVCAR-3 ovarian it was above 100 µM; with HS 578T breast, above 100 µM; in the experiment with HOP-92 NSCLC it was 95.9 µM; with MDA-N, above 100 µM. Moreover, the TGI with CAKI-1 renal, in the experiment with OVCAR-4 ovarian and in the experiment with EKVX NSCLC was above 100 µM in each case.

Consider `O=C1c2ccccc2NC(=S)[C@@H]2CCCN12`, for which the TGI in the experiment with SF-268 CNS, in the experiment on SN12C renal, with OVCAR-3 ovarian, in the experiment on HS 578T breast, in the experiment with HOP-92 NSCLC and with MDA-N was above 100 µM in each case. In addition, the TGI in the experiment on CAKI-1 renal, in the experiment on OVCAR-4 ovarian and in the experiment with EKVX NSCLC was above 100 µM throughout.

Consider `COc1c(O)c2c(=O)cc(OC)c3c4c(OC)cc(=O)c5c(O)c(OC)c6c(c(c1C(C(C)O)C6C(C)O)c23)c54` (stereo not given), for which the TGI came out at 15 µM with SF-268 CNS; 3.17 µM with SN12C renal; 2.66 µM in the experiment with OVCAR-3 ovarian; 6.07 µM in the experiment on HS 578T breast; 1.49 µM with HOP-92 NSCLC; 3.96 µM in the experiment on MDA-N. Moreover, the results for the TGI in the experiment with CAKI-1 renal, with OVCAR-4 ovarian and in the experiment on EKVX NSCLC were 0.842 µM, 4.96 µM and 3.56 µM, respectively.

Consider `CC(=O)OCc1c(O)c2c(c(O)c1COC(C)=O)C(=O)C=CC2=O`, for which the TGI with SF-268 CNS came to 30.8 µM; in the experiment on SN12C renal, 24.2 µM; with OVCAR-3 ovarian, 22.1 µM; in the experiment with SNB-78 CNS, 28 µM; in the experiment with HOP-92 NSCLC, 7.24 µM; in the experiment with DMS 114 small cell lung, 25.4 µM. For the same molecule, the TGI in the experiment with CAKI-1 renal was found to be 21.8 µM; in the experiment on OVCAR-4 ovarian, 22.7 µM; in the experiment with EKVX NSCLC, 32 µM.

Regarding `CCOC(=O)/C(O)=C1\C(=O)N(C)C(=O)C1c1cccc(OC)c1` (stereo not given), the TGI in the experiment with SF-268 CNS is above 100 µM; in the experiment with SN12C renal, above 100 µM; in the experiment with OVCAR-3 ovarian it was above 82.1 µM; in the experiment with SNB-78 CNS, above 100 µM; with HOP-92 NSCLC, above 100 µM; with DMS 114 small cell lung it was above 100 µM. The TGI with CAKI-1 renal, in the experiment on OVCAR-4 ovarian and in the experiment on EKVX NSCLC was above 100 µM in each case.

Take `CCOC(=O)c1nnsc1NN`: the TGI with SF-268 CNS, in the experiment with SN12C renal, in the experiment on OVCAR-3 ovarian, in the experiment with HS 578T breast, in the experiment with HOP-92 NSCLC and with MDA-N was above 100 µM each time. For the same molecule, the TGI with CAKI-1 renal, in the experiment with OVCAR-4 ovarian and in the experiment with EKVX NSCLC was above 100 µM in each case.

`O=C(Nc1noc(-c2ccccc2)n1)c1ccccc1CNc1noc(-c2ccccc2)n1`: the TGI in the experiment on SF-268 CNS, in the experiment with SN12C renal, in the experiment with OVCAR-3 ovarian, with HS 578T breast, in the experiment with HOP-92 NSCLC and with MDA-N was above 100 µM each time. The TGI with CAKI-1 renal, in the experiment with OVCAR-4 ovarian and in the experiment on EKVX NSCLC was above 100 µM in each case.

On to `O=C1CSC2=NC3=C(COC/C3=C\c3ccc(Br)cc3)C(c3ccc(Br)cc3)N12` (stereo not given), for which the TGI in the experiment with SF-268 CNS, in the experiment with SN12C renal, in the experiment on OVCAR-3 ovarian, with HS 578T breast, in the experiment with HOP-92 NSCLC and with MDA-N was above 100 µM each time. Besides, the TGI with CAKI-1 renal, with OVCAR-4 ovarian and with EKVX NSCLC was above 100 µM in each case.

As to `O=[N+]([O-])c1ccc2c(c1)C1=NN(c3ccccc3)C(c3ccccc3Br)C1CCC2` (stereo not given), the TGI with SF-268 CNS is above 50 µM; in the experiment with SN12C renal, above 50 µM; with OVCAR-3 ovarian it was above 50 µM; in the experiment on HS 578T breast, above 50 µM; in the experiment with HOP-92 NSCLC it was 48.1 µM; in the experiment with MDA-N, above 50 µM. Besides, the TGI in the experiment on CAKI-1 renal, in the experiment on OVCAR-4 ovarian and in the experiment on EKVX NSCLC was above 50 µM in each case.

Take `CCOC(=O)c1cn2c(n1)sc1cc(Cl)cc(Cl)c12`: the TGI with SF-268 CNS, with SN12C renal, in the experiment with OVCAR-3 ovarian, in the experiment with HS 578T breast, in the experiment with HOP-92 NSCLC and in the experiment with MDA-N was above 100 µM in each case. Further, the TGI in the experiment with CAKI-1 renal, in the experiment with OVCAR-4 ovarian and in the experiment with EKVX NSCLC was above 100 µM throughout.

With `COC(=O)[C@H](Cc1ccccc1)NC(=O)CCCCCCC(=O)NO`, the TGI was 72.1 µM in the experiment on SF-268 CNS; above 100 µM with SN12C renal; 34.9 µM in the experiment on OVCAR-3 ovarian; above 100 µM in the experiment with HS 578T breast; 71.9 µM with HOP-92 NSCLC; 56.6 µM in the experiment on MDA-N. Besides, the TGI in the experiment on CAKI-1 renal, with OVCAR-4 ovarian and in the experiment on EKVX NSCLC was above 100 µM throughout.
